Experimental data reported in publication PMC4187030, “Effect of cyclodextrin complexation on phenylpropanoids’ solubility and antioxidant activity” (Beilstein Journal of Organic Chemistry, 2014).
Converted amounts (≈) assume the structure as drawn. Where two headings read alike, the source gives them in different places.

Experiments:
[1] = Formation constants (Kf) by UV–visible spectral displacement method, α-CD; type: physicochemical; details: UV–visible spectral displacement with MO (MO itself by direct titration), SD <10%
Method: (§1) Formation constant (Kf) values were calculated using a UV–visible spectral displacement method. This method implies first the characterization of the inclusion complexes between CDs and the competitor (methyl orange, MO). The results are summarized in Table 1 in comparison with values from the literature.
(§2) The UV–visible competition method with methyl orange (MO) as competitor was carried out according to the method described by Landy et al.. In order to calculate CD/PP Kf values, CD/MO inclusion complexes were firstly characterized by a direct titration method. Then, a spectral displacement method was applied by adding PP to a solution containing constant concentration of MO and CD. The addition of PP implied an absorbance increment leading to the calculation of CD/PP Kf values. Spectra were recorded between 520–530 nm for a MO concentration fixed at 0.1 mM. This wavelength range corresponds to the optimal spectral variation between the absorbance of free and complexed forms of MO. All Kf values were calculated by an algorithmic treatment applied to the first derivatives of UV spectra in order to avoid any spectral influence of diffraction phenomena. Absorption studies were performed using a UV–visible dual-beam spectrophotometer (Perkin Elmer Lambda 2S) with a 1 cm thick quartz cuvette.

[2] = Formation constants (Kf) by UV–visible spectral displacement method, β-CD; type: physicochemical; details: UV–visible spectral displacement with MO (MO itself by direct titration), SD <10%
Method: as §1, §2

[3] = Formation constants (Kf) by UV–visible spectral displacement method, HP-β-CD; type: physicochemical; details: UV–visible spectral displacement with MO (MO itself by direct titration), SD <10%
Method: as §1, §2

[4] = Formation constants (Kf) by UV–visible spectral displacement method, RAMEB; type: physicochemical; details: UV–visible spectral displacement with MO (MO itself by direct titration), SD <10%
Method: as §1, §2

[5] = Formation constants (Kf) by UV–visible spectral displacement method, CRYSMEB; type: physicochemical; details: UV–visible spectral displacement with MO (MO itself by direct titration), SD <10%
Method: as §1, §2

[6] = Method: (§3) Phase solubility studies were carried out according to the method described by Higuchi and Connors. Excess amount of PP was added to 1 mL of CD solution at different concentrations ranging from 0 to 10 mM. The mixtures were shaken at 25 °C for 24 h then filtered through a 0.45 μm membrane filter. The concentration of PP in the filtrate was determined spectrophotometrically at the maximum wavelength corresponding to each PP. Phase solubility diagrams were obtained by plotting the solubility of PP as a function of CD concentration. Kf value of CD/PP inclusion complex was calculated from the linear segment of the phase–solubility diagrams using the following equation: […]
(§4) where S0 is the intrinsic solubility of PP in the absence of CD and the Slope is the slope of the phase–solubility profile. The solubilizing potential of CD was evaluated by the complexation efficiency (CE) parameter. CE equal the complex to free CD concentration ratio and was calculated from the slope of the phase solubility diagram: […]
(§5) where [CD/PP] is the concentration of dissolved inclusion complex and [CD] is the concentration of dissolved free CD. The CE can be used to calculate the PP:CD ratio as follows:
(§6) The correlation between the CE and the molecular weight of CD or guest allowed the determination of the increase in formulation bulk which can be calculated using the following equation: […]
(§7) where MWCD and MWPP are the molecular weight values of CD and PP, respectively.

[7] = Phase solubility studies, β-CD
Method: as §3, §4, §5, §6, §7

[8] = Phase solubility studies, HP-β-CD
Method: as §3, §4, §5, §6, §7

[9] = Phase solubility studies, RAMEB; details: for Increase in formulation bulk / Kf / CE (complexation efficiency): RAMEB; for Increase in formulation bulk: from CE and molecular weights; for Kf: from slope of phase solubility diagram and S0, 25 °C; for CE (complexation efficiency): from slope of phase solubility diagram; for St/S0 (solubility enhancement ratio): guest solubility in 10 mM RAMEB solution vs water
Method: as §3, §4, §5, §6, §7

[10] = Phase solubility studies, CRYSMEB
Method: as §3, §4, §5, §6, §7

[11] = Intrinsic solubility (S0) of PP in water; type: physicochemical; details: thermodynamic from solid, absence of CD, 25 °C
Method: as §3, §4

[12] = DPPH radical scavenging activity; details: for Change of DPPH radical scavenging activity upon complexation with CDs: PP in 10 mM CD solution vs water; for Kinetic behavior of reaction with DPPH•: PP with ethanolic DPPH• solution; for DPPH radical scavenging (antioxidant) activity of PP alone: absence of CD, 1 h (3, 4, 6, 7) or 15 h (1, 2, 5), 25 °C
Method: The 2,2-diphenyl-1-picrylhydrazyl (DPPH) radical scavenging activity of PP and their inclusion complexes was measured using the method described by Brand-Williams, Cuvelier, and Berset (1995) with some modifications. 1 mg of PP was dissolved in 50 mL of water, or 10 mM CD solution. 2 mL aliquot of the solution was vigorously mixed with 2 mL of ethanolic DPPH^• solution (0.1 mM). […]. Blank sample was prepared by mixing 2 mL of distilled water with 2 mL of DPPH^• solution. The scavenging activity was calculated using the following equation: […]
where As and A0 are the absorbance of sample and blank sample, respectively.

[13] = β-CD, cited from earlier work
[14] = HP-β-CD, cited from earlier work
[15] = α-CD, cited from earlier work
[16] = RAMEB, cited from earlier work
[17] = CRYSMEB, cited from earlier work
[18] = set-up: method as in earlier work; details: cited from earlier work
[19] = β-CD, from CE and molecular weights
[20] = HP-β-CD, from CE and molecular weights
[21] = HP-β-CD, from slope of phase solubility diagram and S0, 25 °C
[22] = CRYSMEB, from CE and molecular weights
[23] = CRYSMEB, from slope of phase solubility diagram and S0, 25 °C

With `O=C(O)/C=C/c1ccc(O)c(O)c1` [Caffeic acid (6), caffeic acid] the “Formation constant (Kf)” value [1] was 1540 M⁻¹, the “Formation constant (Kf)” value [2] was 318 M⁻¹ and the “Formation constant (Kf)” value [3] was 526 M⁻¹. For the same compound, the “Formation constant (Kf)” value [4] was 991 M⁻¹, the “Formation constant (Kf)” value [5] was 404 M⁻¹ and the “Increase in formulation bulk” value [6] was 7. For the same compound, the Kf [6] was 1819 M⁻¹, the Kf [7] was 425 M⁻¹ and the “Increase in formulation bulk” value [7, 19] was 15. The “Increase in formulation bulk” value [8, 20] was 18, the Kf [8, 21] was 534 M⁻¹ and the “Increase in formulation bulk” value [9] was 13. The Kf [9] was 825 M⁻¹, the “Increase in formulation bulk” value [10, 22] was 14 and the Kf [10, 23] was 552 M⁻¹. The solubility at 24 h [11] was 300 µg/mL (≈ 1670 µM), the “Change of DPPH radical scavenging activity upon complexation with CDs” value (from here on “Change”) [12] was “kept unchanged” and the “Kinetic behavior of reaction with DPPH•” value [12] was “reacted rapidly”. The “DPPH radical scavenging (antioxidant) activity of PP alone” value (“DPPH radical scavenging … of PP alone” for short) [12] was “higher antioxidant activity”, the “Formation constant (Kf)” value ([13]; ref 26) was 278 M⁻¹ and the “Formation constant (Kf)” value ([13]; ref 27) was 516 M⁻¹. For the same compound, the “Formation constant (Kf)” value ([14]; ref 28) was 279 M⁻¹.

For `C=CCc1ccc(O)c(OC)c1` [Eugenol (4), eugenol], the “Formation constant (Kf)” value [1] was 350 M⁻¹, the “Formation constant (Kf)” value [3] was 436 M⁻¹ and the “CE (complexation efficiency)” value [6] was 1.56. For the same compound, the “Increase in formulation bulk” value [6] was 10, the Kf [6] was 246 M⁻¹ and the “Molar ratio (PP:CD)” value [6] was 1:1.64. The “CE (complexation efficiency)” value [7] was 3.25, the “Increase in formulation bulk” value [7] was 9 and the Kf [7] was 513 M⁻¹. For the same compound, the “Molar ratio (PP:CD)” value [7] was 1:1.31, the “CE (complexation efficiency)” value [8] was 2.81 and the “Increase in formulation bulk” value [8] was 12. The Kf [8] was 445 M⁻¹, the “Molar ratio (PP:CD)” value [8] was 1:1.36 and the “Increase in formulation bulk” value [9] was 11. For the same compound, the “CE (complexation efficiency)” value [9] was 3.48, the Kf [9] was 550 M⁻¹ and the “St/S0 (solubility enhancement ratio)” value [9] was 2.2. The “CE (complexation efficiency)” value [10] was 2.78, the “Increase in formulation bulk” value [10] was 10 and the Kf [10] was 440 M⁻¹. For the same compound, the “Molar ratio (PP:CD)” value [10] was 1:1.36, the solubility at 24 h [11] was 1040 µg/mL (≈ 6320 µM) and the “Change” value [12] was “kept unchanged”. For the same compound, the “Kinetic behavior of reaction with DPPH•” value [12] was “reacted rapidly”, the “DPPH radical scavenging … of PP alone” value [12] was “higher antioxidant activity” and the “Formation constant (Kf)” value ([15]; ref 24) was 94 M⁻¹. For the same compound, the “Formation constant (Kf)” value ([13]; ref 21) was 322 M⁻¹, the “Formation constant (Kf)” value ([13]; ref 24) was 264 M⁻¹ and the “Formation constant (Kf)” value ([13]; ref 25) was 357 M⁻¹. For the same compound, the “Formation constant (Kf)” value ([14]; ref 21) was 445 M⁻¹, the “Formation constant (Kf)” value ([14]; ref 24) was 462 M⁻¹ and the “Formation constant (Kf)” value ([16]; ref 21) was 521 M⁻¹. The “Formation constant (Kf)” value ([16]; ref 24) was 568 M⁻¹, the “Formation constant (Kf)” value ([17]; ref 21) was 401 M⁻¹ and the “Formation constant (Kf)” value ([17]; ref 24) was 454 M⁻¹. The “log P” value [18] was 2.100.

With `O=C(O)/C=C/c1ccc(O)cc1` [p-Coumaric acid (5), p-coumaric acid] the “Formation constant (Kf)” value [1] was 1816 M⁻¹, the “Formation constant (Kf)” value [2] was 338 M⁻¹ and the “Formation constant (Kf)” value [3] was 787 M⁻¹. For the same compound, the “Formation constant (Kf)” value [4] was 1030 M⁻¹, the “Formation constant (Kf)” value [5] was 668 M⁻¹ and the “CE (complexation efficiency)” value [6] was 4.17. The “Increase in formulation bulk” value [6] was 7, the Kf [6] was 1988 M⁻¹ and the “Molar ratio (PP:CD)” value [6] was 1:1.24. The “St/S0 (solubility enhancement ratio)” value ([7]; guest solubility in 10 mM β-CD solution vs water) was 2.8, the “Increase in formulation bulk” value [7, 19] was 18 and the “CE (complexation efficiency)” value ([7]; β-CD, from slope of phase solubility diagram) was 0.64. The Kf ([7]; β-CD, from slope of phase solubility diagram and S0, 25 °C (linear portion for 1 and 2)) was 306 M⁻¹, the “Increase in formulation bulk” value [8, 20] was 13 and the “CE (complexation efficiency)” value ([8]; HP-β-CD, from slope of phase solubility diagram) was 2.30. For the same compound, the Kf [8, 21] was 1099 M⁻¹, the “St/S0 (solubility enhancement ratio)” value ([8]; guest solubility in 10 mM HP-β-CD solution vs water) was 4.4 and the “Increase in formulation bulk” value [9] was 11. For the same compound, the “CE (complexation efficiency)” value [9] was 2.57, the Kf [9] was 1228 M⁻¹ and the “St/S0 (solubility enhancement ratio)” value [9] was 4.4. The “Increase in formulation bulk” value [10, 22] was 11, the “CE (complexation efficiency)” value ([10]; CRYSMEB, from slope of phase solubility diagram) was 1.89 and the Kf [10, 23] was 900 M⁻¹. For the same compound, the “St/S0 (solubility enhancement ratio)” value ([10]; guest solubility in 10 mM CRYSMEB solution vs water) was 4, the solubility at 24 h [11] was 344 µg/mL (≈ 2100 µM) and the “Change” value [12] was “kept unchanged”. For the same compound, the “Kinetic behavior of reaction with DPPH•” value [12] was “slow kinetic behavior”, the “DPPH radical scavenging … of PP alone” value [12] was “higher antioxidant activity” and the “log P” value [18] was 1.43.

With `C/C=C/c1ccc(OC)cc1` [trans-Anethole (1), trans-anethole] the “Formation constant (Kf)” value [1] was 927 M⁻¹, the “Formation constant (Kf)” value [2] was 542 M⁻¹ and the “Formation constant (Kf)” value [3] was 845 M⁻¹. The “Formation constant (Kf)” value [4] was 1815 M⁻¹, the “Formation constant (Kf)” value [5] was 1039 M⁻¹ and the “Change” value [12] was “increase in activity”. The “Kinetic behavior of reaction with DPPH•” value [12] was “slow kinetic behavior”, the “DPPH radical scavenging … of PP alone” value [12] was “reacted little” and the “Formation constant (Kf)” value ([15]; ref 11) was 1163 M⁻¹. The “Formation constant (Kf)” value ([15]; ref 23) was 710 M⁻¹, the “Formation constant (Kf)” value ([13]; ref 11) was 630 M⁻¹ and the “Formation constant (Kf)” value ([13]; ref 23) was 497 M⁻¹. For the same compound, the “Formation constant (Kf)” value ([14]; ref 11) was 1042 M⁻¹, the “Formation constant (Kf)” value ([14]; ref 23) was 981 M⁻¹ and the “Formation constant (Kf)” value ([16]; ref 11) was 1553 M⁻¹. The “Formation constant (Kf)” value ([16]; ref 23) was 1110 M⁻¹, the “Formation constant (Kf)” value ([17]; ref 11) was 740 M⁻¹ and the “Formation constant (Kf)” value ([17]; ref 23) was 877 M⁻¹. For the same compound, the “log P” value [18] was 3.096.
